US9924723B2 (THE REGENTS OF THE UNIVERSITY OF COLORADO, A BODY CORPORATE, priority 2013, dated 2018)

How the values were obtained:
[1] = Metal desorption from pre-loaded GAC in phosphate or citrate buffer solutions at various pH; type: physicochemical
Description: Phosphate or citrate buffering was used to stabilize pH. Points represent the mean of three observations. Error bars indicate standard deviation.
The metal leaching behavior of the GAC impregnated with Cd^2+ or CrO4^2− ions was determined using phosphate or citrate buffer solutions as described herein. […] This is consistent with studies that found cadmium and other metal cations sorbed to activated carbon most strongly at high pH. […] Also, chromate anions have increased sorption to activated carbon at low pH.
By delivering toxicity in the pH range where this transition between community types occurs, the metal-carbon formulations can prevent acidophile colonization. […] Cadmium cation sorption is more ideal for this corrosion prevention application because metal remains in solution as corrosion progresses to pH values below 6.

[2] = test system: Halothiobacillus neapolitanus strains; conditions: cited from earlier work
[3] = Leaching of metal from metal-carbon formulation in liquid media (total metal concentration); type: physicochemical
[4] = Cadmium and chromium in corrosion product and pore water of treated field specimens (ICP-MS), pore water pH; type: physicochemical; conditions: after 70 days, Experiment B
Description: Metal concentrations measured by inductively coupled plasma mass spectrometry (ICP-MS) of acid extracted samples.
Cadmium and chromium were measured in dry sieved corrosion products for the treated samples in Experiment B, and are presented both as ng/g dry sieved fines as well as μM in pore water (FIG. 9). These metals are typically present in Portland Cement at average concentrations of 0.34 ng/g Cd and 76 ng/g Cr. […] Aside from one chromium outlier at 71 days, metal concentrations in the dry fine material after 50 days stayed relatively constant between 400 and 800 ng/g.
Metal concentrations—micromolar levels of both cadmium and chomium—in pore water are also shown; these levels represent the concentrations which drive metal diffusion into bacterial cells on the corrosion front. Pore water concentrations increased to several μM after 70 days, and subsequently receded to less than 0.2 μM by the end of the experiment at 126 days (FIG. 9). This decrease is in pore water concentrations is due to a marked increase in surface moisture as the experiment progressed (up to 23% moisture), which diluted the released metal ions.

[5] = between pH 1 and pH 6; cited from earlier work
[6] = GAC impregnated with metal ions, phosphate or citrate buffer

| Compound | Sorption to GAC as function of pH [1, 6] | pH below which ions can resorb onto the carbon ([1]; pre-loaded GAC, buffered solutions) | Effect on thiosulfate oxidation [2] | Total metal concentration based on leaching experiments in media ([3]; pH 3) | Total metal concentration based on leaching experiments in media ([3]; pH 5) | pH below which desorption from GAC increases [1, 6] | Metal concentration in pore water [4] | Factor of increase of adsorption to activated carbon [5] |
| --- | --- | --- | --- | --- | --- | --- | --- | --- |
| [O]=[Cr](=[O])([O-])[O-] [CrO4^−2] | sorb strongly at pH above 7 and pH below 5 | < 4 | inhibit | – | – | – | – | – |
| [Cd] [cadmium] | – | – | – | 0.89 mM | 0.89 mM | below 6 | several | 10 |
| [Cr] [chromium] | – | – | – | 0.00456 mM | 0.000822 mM | – | several | – |
